Target: KRas (Homo sapiens, UniProt P01116, G12C)
Experiment: KRas degradation in NCI-H2030 cells by Western blot, normalized to GAPDH (data of Table 14)
Format: cell-based
Parameters: host or cells: NCI-H2030
Details: for Dmax: NCI-H2030
Method in brief: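 After a day without serum, the G12C-homozygous cells received each compound at 0.3, 1 and 3 μM, with VHL-based degraders left for 24 h and other compounds for 72 h. DC50 is the concentration giving half-maximal degradation and DMax the maximal degradation, both taken from KRas levels normalized to GAPDH.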

Structure (SMILES): C=CC(=O)N1CCN(c2nc(NCCC(=O)N(C)CCOCCOCCOCCOCCOc3ccc4c(c3)CN(C3CCC(=O)NC3=O)C4=O)nc3c(F)c(-c4cc(O)cc5ccccc45)c(Cl)cc23)CC1 (stereo not drawn) [compound 68, 3-((4-(4-acryloylpiperazin-1-yl)-6-chloro-8-fluoro-7-(3-hydroxynaphthalen-1-yl)quinazolin-2-yl)amino)-N-(14-((2-(2,6-dioxopiperidin-3-yl)-1-oxoisoindolin-5-yl)oxy)-3,6,9,12-tetraoxatetradecyl)-N-methylpropanamide]
- Percent Degradation at Indicated Concentration (μM) (H2030, 0.3 μM): C (Percent Degradation: C ≤ 35)
- Percent Degradation at Indicated Concentration (μM) (H2030, 1 μM): C (Percent Degradation: C ≤ 35)
- Percent Degradation at Indicated Concentration (μM) (H2030, 3 μM): C (Percent Degradation: C ≤ 35)
- Dmax: ≤ 35%

Structure (SMILES): C=CC(=O)N1CCN(c2nc(NCCC(=O)N(C)CCOCCOCCOCCOCCOc3cc(-c4scnc4C)ccc3CNC(=O)[C@@H]3C[C@@H](O)CN3C(=O)[C@@H](c3cc(C)no3)C(C)C)nc3c(F)c(-c4cc(O)cc5ccccc45)c(Cl)cc23)CC1 [compound 345, (2S,4R)-N-(2-((18-((4-(4-acryloylpiperazin-1-yl)-6-chloro-8-fluoro-7-(3-hydroxynaphthalen-1-yl)quinazolin-2-yl)amino)-15-methyl-16-oxo-3,6,9,12-tetraoxa-15-azaoctadecyl)oxy)-4-(4-methylthiazol-5-yl)benzyl)-4-hydroxy-1-((R)-3-methyl-2-(3-methylisoxazol-5-yl)butanoyl)pyrrolidine-2-carboxamide]
- Percent Degradation at Indicated Concentration (μM): 0.3 (H2030 cells, 0.3 μM): C (C ≤ 35)
- Percent Degradation at Indicated Concentration (μM): 1 (H2030 cells, 1 μM): C (C ≤ 35)
- Percent Degradation at Indicated Concentration (μM): 3 (H2030 cells, 3 μM): C (C ≤ 35)
- Dmax (H2030 cells): ≤ 35%

Structure (SMILES): CCC(=O)N1CCN(c2nc(NCCC(=O)N(C)CCOCCOCCOc3ccc4c(c3)CN(C3CCC(=O)NC3=O)C4=O)nc3c(F)c(-c4cc(O)cc5ccccc45)c(Cl)cc23)CC1 (stereo not drawn) [compound 52, 3-((6-chloro-8-fluoro-7-(3-hydroxynaphthalen-1-yl)-4-(4-propionylpiperazin-1-yl)quinazolin-2-yl)amino)-N-(2-(2-(2-((2-(2,6-dioxopiperidin-3-yl)-1-oxoisoindolin-5-yl)oxy)ethoxy)ethoxy)ethyl)-N-methylpropanamide]
- Percent Degradation at Indicated Concentration (μM): 0.3 (H2030 cells, 0.3 μM): C (C ≤ 35)
- Percent Degradation at Indicated Concentration (μM): 1 (H2030 cells, 1 μM): C (C ≤ 35)
- Percent Degradation at Indicated Concentration (μM): 3 (H2030 cells, 3 μM): C (C ≤ 35)
- Dmax (H2030 cells): ≤ 35%

Structure (SMILES): C=CC(=O)N1CCN(c2nc(O[C@H](C)CN3CCC(OCCOCCOCCOCCOCCOCC(=O)N[C@H](C(=O)N4C[C@H](O)C[C@H]4C(=O)N[C@@H](C)c4ccc(-c5scnc5C)cc4)C(C)(C)C)CC3)nc3c2CCN(c2cc(O)cc4ccccc24)C3)CC1 [compound 410, (2S,4R)-1-((S)-20-((1-((R)-2-((4-(4-acryloylpiperazin-1-yl)-7-(3-hydroxynaphthalen-1-yl)-5,6,7,8-tetrahydropyrido[3,4-d]pyrimidin-2-yl)oxy)propyl)piperidin-4-yl)oxy)-2-(tert-butyl)-4-oxo-6,9,12,15,18-pentaoxa-3-azaicosanoyl)-4-hydroxy-N-((S)-1-(4-(4-methylthiazol-5-yl)phenyl)ethyl)pyrrolidine-2-carboxamide]
- Percent Degradation at Indicated Concentration (μM) (H2030 cells, 0.3 μM): C (Percent Degradation: C ≤ 35)
- Percent Degradation at Indicated Concentration (μM) (H2030 cells, 1 μM): C (Percent Degradation: C ≤ 35)
- Percent Degradation at Indicated Concentration (μM) (H2030 cells, 3 μM): C (Percent Degradation: C ≤ 35)

Structure (SMILES): C=CC(=O)N1CCN(c2nc(O[C@H](C)CN3CCC(OCCOCCOCCOCCOc4ccc5c(c4)C(=O)N(C4CCC(=O)NC4=O)C5=O)CC3)nc3c2CCN(c2cc(O)cc4ccccc24)C3)CC1 (stereo partly drawn) [compound 419, 5-(2-(2-(2-(2-((1-((R)-2-((4-(4-acryloylpiperazin-1-yl)-7-(3-hydroxynaphthalen-1-yl)-5,6,7,8-tetrahydropyrido[3,4-d]pyrimidin-2-yl)oxy)propyl)piperidin-4-yl)oxy)ethoxy)ethoxy)ethoxy)ethoxy)-2-(2,6-dioxopiperidin-3-yl)isoindoline-1,3-dione]
- Percent Degradation at Indicated Concentration (μM) (H2030 cells, 0.3 μM): C (Percent Degradation: C ≤ 35)
- Percent Degradation at Indicated Concentration (μM) (H2030 cells, 1 μM): C (Percent Degradation: C ≤ 35)
- Percent Degradation at Indicated Concentration (μM) (H2030 cells, 3 μM): C (Percent Degradation: C ≤ 35)

Structure (SMILES): C=CC(=O)N1CCN(c2nc(NCCC(=O)N(C)CCOCCOCCOCCOCCNc3cccc4c3C(=O)N(C3CCC(=O)NC3=O)C4=O)nc3c(F)c(-c4c(O)cccc4F)c(Cl)cc23)CC1 [compound 115, 3-(((S)-4-(4-acryloylpiperazin-1-yl)-6-chloro-8-fluoro-7-(2-fluoro-6-hydroxyphenyl)quinazolin-2-yl)amino)-N-(14-((2-(2,6-dioxopiperidin-3-yl)-1,3-dioxoisoindolin-4-yl)amino)-3,6,9,12-tetraoxatetradecyl)-N-methylpropanamide]
- Percent Degradation at Indicated Concentration (μM) (H2030, 3 μM): C (Percent Degradation: C ≤ 35)

Structure (SMILES): CCC(=O)N1CCN(c2nc(NCCC(=O)N(C)CCOCCOCCOCCOc3cc(-c4scnc4C)ccc3CNC(=O)[C@@H]3C[C@@H](O)CN3C(=O)[C@H](c3cc(C)no3)C(C)C)nc3c(F)c(-c4cc(O)cc5ccccc45)c(Cl)cc23)CC1 [compound 335, (2S,4R)-N-(2-((15-((6-chloro-8-fluoro-7-(3-hydroxynaphthalen-1-yl)-4-(4-propionylpiperazin-1-yl)quinazolin-2-yl)amino)-12-methyl-13-oxo-3,6,9-trioxa-12-azapentadecyl)oxy)-4-(4-methylthiazol-5-yl)benzyl)-4-hydroxy-1-((S)-3-methyl-2-(3-methylisoxazol-5-yl)butanoyl)pyrrolidine-2-carboxamide]
- Percent Degradation at Indicated Concentration (μM): 0.3 (H2030 cells, 0.3 μM): C (C ≤ 35)
- Percent Degradation at Indicated Concentration (μM): 1 (H2030 cells, 1 μM): C (C ≤ 35)
- Percent Degradation at Indicated Concentration (μM): 3 (H2030 cells, 3 μM): C (C ≤ 35)
- Dmax (H2030 cells): ≤ 35%

Structure (SMILES): CN(C)C(=O)CCNc1nc(N2CCN(C(=O)/C=C/CCOCCOc3ccc4c(c3)C(=O)N(C3CCC(=O)NC3=O)C4=O)CC2)c2cc(Cl)c(-c3cc(O)cc4ccccc34)c(F)c2n1 (stereo not drawn) [compound 172, (E)-3-((6-chloro-4-(4-(5-(2-((2-(2,6-dioxopiperidin-3-yl)-1,3-dioxoisoindolin-5-yl)oxy)ethoxy)pent-2-enoyl)piperazin-1-yl)-8-fluoro-7-(3-hydroxynaphthalen-1-yl)quinazolin-2-yl)amino)-N,N-dimethylpropanamide]
- Percent Degradation at Indicated Concentration (μM) (H2030, 0.3 μM): C (Percent Degradation: C ≤ 35)
- Percent Degradation at Indicated Concentration (μM) (H2030, 1 μM): C (Percent Degradation: C ≤ 35)
- Percent Degradation at Indicated Concentration (μM) (H2030, 3 μM): C (Percent Degradation: C ≤ 35)
- Dmax: ≤ 35%

Structure (SMILES): CC(=O)N1CCN(c2nc(NCCC(=O)N(C)CCOCCOCCOCCOCCOCC(=O)N[C@H](C(=O)N3C[C@H](O)C[C@H]3C(=O)N[C@@H](C)c3ccc(-c4scnc4C)cc3)C(C)(C)C)nc3c(F)c(-c4cc(O)cc5ccccc45)c(Cl)cc23)CC1 [compound 204, (2S,4R)-1-((2S)-24-((4-(4-acetylpiperazin-1-yl)-6-chloro-8-fluoro-7-(3-hydroxynaphthalen-1-yl)quinazolin-2-yl)amino)-2-(tert-butyl)-21-methyl-4,22-dioxo-6,9,12,15,18-pentaoxa-3,21-diazatetracosanoyl)-4-hydroxy-N-((S)-1-(4-(4-methylthiazol-5-yl)phenyl)ethyl)pyrrolidine-2-carboxamide]
- Percent Degradation at Indicated Concentration (μM) (H2030, 0.3 μM): C (Percent Degradation: C ≤ 35)
- Percent Degradation at Indicated Concentration (μM) (H2030, 1 μM): C (Percent Degradation: C ≤ 35)
- Percent Degradation at Indicated Concentration (μM) (H2030, 3 μM): C (Percent Degradation: C ≤ 35)
- Dmax: ≤ 35%

Structure (SMILES): CN(C)C(=O)CCNc1nc(N2CCN(C(=O)/C=C/CCOc3ccc4c(c3)C(=O)N(C3CCC(=O)NC3=O)C4=O)CC2)c2cc(Cl)c(-c3cc(O)cc4ccccc34)c(F)c2n1 (stereo not drawn) [compound 468]
- Percent Degradation at Indicated Concentration (μM) (H2030, 0.3 μM): C (Percent Degradation: C ≤ 35)
- Percent Degradation at Indicated Concentration (μM) (H2030, 1 μM): C (Percent Degradation: C ≤ 35)
- Percent Degradation at Indicated Concentration (μM) (H2030, 3 μM): C (Percent Degradation: C ≤ 35)
- Dmax: ≤ 35%

Structure (SMILES): C=CC(=O)N1CCN(c2nc(O[C@H](C)CN3CCC(OCCOCCOCCOCCNc4cccc5c4C(=O)N(C4CCC(=O)NC4=O)C5=O)CC3)nc3c2CCN(c2cc(O)cc4ccccc24)C3)CC1 (stereo partly drawn) [compound 414]
- Percent Degradation at Indicated Concentration (μM) (H2030 cells, 0.3 μM): C (Percent Degradation: C ≤ 35)
- Percent Degradation at Indicated Concentration (μM) (H2030 cells, 1 μM): C (Percent Degradation: C ≤ 35)
- Percent Degradation at Indicated Concentration (μM) (H2030 cells, 3 μM): C (Percent Degradation: C ≤ 35)

Structure (SMILES): O=C1CCC(N2C(=O)c3ccc(OCCOCCOCCOCC/C=C/C(=O)N4CCN(c5ncnc6c(F)c(-c7cc(O)cc8ccccc78)c(Cl)cc56)CC4)cc3C2=O)C(=O)N1 (stereo not drawn) [compound 170, (E)-5-(2-(2-(2-((5-(4-(6-chloro-8-fluoro-7-(3-hydroxynaphthalen-1-yl)quinazolin-4-yl)piperazin-1-yl)-5-oxopent-3-en-1-yl)oxy)ethoxy)ethoxy)ethoxy)-2-(2,6-dioxopiperidin-3-yl)isoindoline-1,3-dione]
- Percent Degradation at Indicated Concentration (μM) (H2030, 0.3 μM): C (Percent Degradation: C ≤ 35)
- Percent Degradation at Indicated Concentration (μM) (H2030, 1 μM): C (Percent Degradation: C ≤ 35)
- Percent Degradation at Indicated Concentration (μM) (H2030, 3 μM): C (Percent Degradation: C ≤ 35)
- Dmax: ≤ 35%
